# In PubChem BioAssay (NCI):
#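 Briefly, cells in 96-well plates were exposed to five compound concentrations for 48 h, and endpoints were estimated by linear interpolation. GI50 marks 50% less growth. TGI: total growth inhibition.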
# How the values were obtained:
# Experiment in all cases: NCI anticancer screen, dose series, 48 h
# UACC-257 melanoma = system: UACC-257 melanoma
# OVCAR-8 ovarian = system: OVCAR-8 ovarian
# MDA-MB-231 breast = system: MDA-MB-231 breast
# SK-OV-3 ovarian = system: SK-OV-3 ovarian
# HL-60(TB) leukemia = system: HL-60(TB) leukemia
# SW-620 colon = system: SW-620 colon
# RPMI-8226 leukemia = system: RPMI-8226 leukemia
# SK-MEL-2 melanoma = system: SK-MEL-2 melanoma
# MOLT-4 leukemia = system: MOLT-4 leukemia
# PC-3 prostate = system: PC-3 prostate
# UACC-62 melanoma = system: UACC-62 melanoma
# HS 578T breast = system: HS 578T breast
# SN12C renal = system: SN12C renal
# NCI-H460 lung = system: NCI-H460 lung
# MCF7 breast = system: MCF7 breast
# NCI-H522 lung = system: NCI-H522 lung
# SF-268 CNS = system: SF-268 CNS
# K-562 leukemia = system: K-562 leukemia
# OVCAR-5 ovarian = system: OVCAR-5 ovarian
# NCI-H226 lung = system: NCI-H226 lung
# OVCAR-3 ovarian = system: OVCAR-3 ovarian
# OVCAR-4 ovarian = system: OVCAR-4 ovarian
# DU-145 prostate = system: DU-145 prostate
# COLO 205 colon = system: COLO 205 colon
# BT-549 breast = system: BT-549 breast
# CAKI-1 renal = system: CAKI-1 renal
# TK-10 renal = system: TK-10 renal
# SNB-75 CNS = system: SNB-75 CNS
# HCT-15 colon = system: HCT-15 colon
# LOX IMVI melanoma = system: LOX IMVI melanoma
# A498 renal = system: A498 renal
# UO-31 renal = system: UO-31 renal
# M14 melanoma = system: M14 melanoma
# NCI/ADR-RES ovarian = system: NCI/ADR-RES ovarian
# 786-0 renal = system: 786-0 renal
# CCRF-CEM leukemia = system: CCRF-CEM leukemia
# EKVX NSCLC = system: EKVX NSCLC
# HT29 colon = system: HT29 colon
# SNB-19 CNS = system: SNB-19 CNS
# SF-295 CNS = system: SF-295 CNS
# IGROV1 ovarian = system: IGROV1 ovarian
# U251 CNS = system: U251 CNS
# HCC-2998 colon = system: HCC-2998 colon
# HCT-116 colon = system: HCT-116 colon
# MALME-3M melanoma = system: MALME-3M melanoma
# KM12 colon = system: KM12 colon
# SK-MEL-28 melanoma = system: SK-MEL-28 melanoma
# MDA-MB-435 = system: MDA-MB-435
# ACHN renal = system: ACHN renal
# T-47D breast = system: T-47D breast
# SF-539 CNS = system: SF-539 CNS
# HOP-92 NSCLC = system: HOP-92 NSCLC
# A549 NSCLC = system: A549 NSCLC
# HOP-62 NSCLC = system: HOP-62 NSCLC
# SR leukemia = system: SR leukemia
# SK-MEL-5 melanoma = system: SK-MEL-5 melanoma
# NCI-H23 lung = system: NCI-H23 lung
# RXF 393 renal = system: RXF 393 renal
smiles,measurement,setting,value
NNC(=O)c1ccccc1Nc1nc(-c2cccs2)nc2ccc(Br)cc12,TGI,UACC-257 melanoma,> 100 µM
same,TGI,OVCAR-8 ovarian,> 100 µM
same,TGI,MDA-MB-231 breast,> 100 µM
same,TGI,SK-OV-3 ovarian,> 100 µM
same,TGI,HL-60(TB) leukemia,> 100 µM
same,TGI,SW-620 colon,> 100 µM
same,TGI,RPMI-8226 leukemia,> 100 µM
same,TGI,SK-MEL-2 melanoma,> 100 µM
same,TGI,MOLT-4 leukemia,> 100 µM
same,TGI,PC-3 prostate,> 100 µM
same,TGI,UACC-62 melanoma,> 100 µM
same,TGI,HS 578T breast,> 100 µM
same,TGI,SN12C renal,> 100 µM
same,TGI,NCI-H460 lung,> 100 µM
same,TGI,MCF7 breast,> 100 µM
same,TGI,NCI-H522 lung,> 100 µM
same,TGI,SF-268 CNS,> 100 µM
same,TGI,K-562 leukemia,> 100 µM
same,TGI,OVCAR-5 ovarian,> 100 µM
same,TGI,NCI-H226 lung,> 100 µM
same,TGI,OVCAR-3 ovarian,> 100 µM
same,TGI,OVCAR-4 ovarian,> 100 µM
same,TGI,DU-145 prostate,> 100 µM
same,TGI,COLO 205 colon,> 100 µM
same,TGI,BT-549 breast,> 100 µM
same,TGI,CAKI-1 renal,> 100 µM
same,TGI,TK-10 renal,> 100 µM
same,TGI,SNB-75 CNS,> 100 µM
same,TGI,HCT-15 colon,> 100 µM
same,TGI,LOX IMVI melanoma,> 100 µM
same,TGI,A498 renal,> 100 µM
same,TGI,UO-31 renal,> 100 µM
same,TGI,M14 melanoma,> 100 µM
same,TGI,NCI/ADR-RES ovarian,> 100 µM
same,TGI,786-0 renal,> 100 µM
same,TGI,CCRF-CEM leukemia,> 100 µM
same,TGI,EKVX NSCLC,> 100 µM
same,TGI,HT29 colon,> 100 µM
same,TGI,SNB-19 CNS,> 100 µM
same,TGI,SF-295 CNS,> 100 µM
same,TGI,IGROV1 ovarian,> 100 µM
same,TGI,U251 CNS,> 100 µM
same,TGI,HCC-2998 colon,> 100 µM
same,TGI,HCT-116 colon,> 100 µM
same,TGI,MALME-3M melanoma,> 100 µM
same,TGI,KM12 colon,> 100 µM
same,TGI,SK-MEL-28 melanoma,> 100 µM
same,TGI,MDA-MB-435,> 100 µM
same,TGI,ACHN renal,> 100 µM
same,TGI,T-47D breast,> 100 µM
same,TGI,SF-539 CNS,> 100 µM
same,TGI,HOP-92 NSCLC,> 100 µM
same,TGI,A549 NSCLC,> 100 µM
same,TGI,HOP-62 NSCLC,> 100 µM
same,TGI,SR leukemia,> 100 µM
same,TGI,SK-MEL-5 melanoma,> 100 µM
same,TGI,NCI-H23 lung,> 100 µM
O=C(OCC1OC(n2cc(C(F)(F)F)c(=O)[nH]c2=O)CC1OC(=O)c1ccc([N+](=O)[O-])cc1)c1ccc([N+](=O)[O-])cc1 (stereo unspecified),GI50,UACC-257 melanoma,2.7 µM
same,TGI,UACC-257 melanoma,> 100 µM
same,GI50,OVCAR-8 ovarian,6.91 µM
same,TGI,OVCAR-8 ovarian,> 100 µM
same,GI50,MDA-MB-231 breast,> 100 µM
same,TGI,MDA-MB-231 breast,> 100 µM
same,GI50,SK-OV-3 ovarian,8.51 µM
same,TGI,SK-OV-3 ovarian,> 100 µM
same,GI50,HL-60(TB) leukemia,7.37 µM
same,TGI,HL-60(TB) leukemia,> 100 µM
same,GI50,SW-620 colon,6.2 µM
same,TGI,SW-620 colon,> 100 µM
same,GI50,RPMI-8226 leukemia,2.12 µM
same,TGI,RPMI-8226 leukemia,> 100 µM
same,GI50,SK-MEL-2 melanoma,> 100 µM
same,TGI,SK-MEL-2 melanoma,> 100 µM
same,GI50,MOLT-4 leukemia,14.8 µM
same,TGI,MOLT-4 leukemia,> 100 µM
same,GI50,PC-3 prostate,8.74 µM
same,TGI,PC-3 prostate,> 100 µM
same,GI50,UACC-62 melanoma,1.41 µM
same,TGI,UACC-62 melanoma,> 100 µM
same,GI50,HS 578T breast,> 100 µM
same,TGI,HS 578T breast,> 100 µM
same,GI50,SN12C renal,4.28 µM
same,TGI,SN12C renal,> 100 µM
same,GI50,NCI-H460 lung,3.43 µM
same,TGI,NCI-H460 lung,> 100 µM
same,GI50,MCF7 breast,1.26 µM
same,TGI,MCF7 breast,> 100 µM
same,GI50,NCI-H522 lung,5.65 µM
same,TGI,NCI-H522 lung,> 100 µM
same,GI50,SF-268 CNS,3.87 µM
same,TGI,SF-268 CNS,> 100 µM
same,GI50,K-562 leukemia,94 µM
same,TGI,K-562 leukemia,> 100 µM
same,GI50,OVCAR-5 ovarian,41.8 µM
same,TGI,OVCAR-5 ovarian,> 100 µM
same,GI50,RXF 393 renal,4.54 µM
same,TGI,RXF 393 renal,> 100 µM
same,GI50,NCI-H226 lung,9.42 µM
same,TGI,NCI-H226 lung,> 100 µM
same,GI50,OVCAR-3 ovarian,23.8 µM
same,TGI,OVCAR-3 ovarian,> 100 µM
same,GI50,OVCAR-4 ovarian,54.7 µM
same,TGI,OVCAR-4 ovarian,> 100 µM
same,GI50,DU-145 prostate,0.885 µM
same,TGI,DU-145 prostate,> 100 µM
same,GI50,COLO 205 colon,> 100 µM
same,TGI,COLO 205 colon,> 100 µM
same,GI50,BT-549 breast,7.42 µM
same,TGI,BT-549 breast,> 100 µM
same,GI50,CAKI-1 renal,3.29 µM
same,TGI,CAKI-1 renal,> 100 µM
same,GI50,TK-10 renal,> 100 µM
same,TGI,TK-10 renal,> 100 µM
same,GI50,SNB-75 CNS,8.92 µM
same,TGI,SNB-75 CNS,> 100 µM
same,GI50,HCT-15 colon,20.8 µM
same,TGI,HCT-15 colon,> 100 µM
same,GI50,LOX IMVI melanoma,4.81 µM
same,TGI,LOX IMVI melanoma,> 100 µM
same,GI50,UO-31 renal,3.77 µM
same,TGI,UO-31 renal,> 100 µM
same,GI50,M14 melanoma,1.96 µM
same,TGI,M14 melanoma,7.82 µM
same,GI50,NCI/ADR-RES ovarian,16.7 µM
same,TGI,NCI/ADR-RES ovarian,> 100 µM
same,GI50,786-0 renal,3.11 µM
same,TGI,786-0 renal,18.6 µM
same,GI50,CCRF-CEM leukemia,3.86 µM
same,TGI,CCRF-CEM leukemia,> 100 µM
same,GI50,EKVX NSCLC,> 100 µM
same,TGI,EKVX NSCLC,> 100 µM
same,GI50,HT29 colon,> 100 µM
same,TGI,HT29 colon,> 100 µM
same,GI50,SNB-19 CNS,> 100 µM
same,TGI,SNB-19 CNS,> 100 µM
same,GI50,SF-295 CNS,3.72 µM
same,TGI,SF-295 CNS,> 100 µM
same,GI50,IGROV1 ovarian,25.4 µM
same,TGI,IGROV1 ovarian,> 100 µM
same,GI50,U251 CNS,9.08 µM
same,TGI,U251 CNS,> 100 µM
same,GI50,HCC-2998 colon,5.38 µM
same,TGI,HCC-2998 colon,> 100 µM
same,GI50,HCT-116 colon,8.5 µM
same,TGI,HCT-116 colon,> 100 µM
same,GI50,MALME-3M melanoma,92.3 µM
same,TGI,MALME-3M melanoma,> 100 µM
same,GI50,KM12 colon,> 100 µM
same,TGI,KM12 colon,> 100 µM
same,GI50,SK-MEL-28 melanoma,> 100 µM
same,TGI,SK-MEL-28 melanoma,> 100 µM
same,GI50,MDA-MB-435,2.36 µM
same,TGI,MDA-MB-435,> 100 µM
same,GI50,ACHN renal,1.17 µM
same,TGI,ACHN renal,> 100 µM
same,GI50,T-47D breast,7.88 µM
same,TGI,T-47D breast,> 100 µM
same,GI50,SF-539 CNS,2.03 µM
same,TGI,SF-539 CNS,> 100 µM
same,GI50,HOP-92 NSCLC,8.55 µM
same,TGI,HOP-92 NSCLC,> 100 µM
same,GI50,A549 NSCLC,4.95 µM
same,TGI,A549 NSCLC,> 100 µM
same,GI50,HOP-62 NSCLC,8.97 µM
same,TGI,HOP-62 NSCLC,> 100 µM
same,GI50,SR leukemia,11.3 µM
same,TGI,SR leukemia,> 100 µM
same,GI50,SK-MEL-5 melanoma,4.55 µM
same,TGI,SK-MEL-5 melanoma,> 100 µM
same,GI50,NCI-H23 lung,> 100 µM
same,TGI,NCI-H23 lung,> 100 µM
